Laboratory results taken from US20240317791A1 (priority 2021, published 2024).
Where two headings read alike, the source gives them in different places. Numbered stars: 1 amine (or outer) side, 2 acyl side, 3 side chain; on linkers, the order of the positions; unused ones are H or OH. Bridge positions count the residues as written; N and C are the ends. Square brackets hold non-standard residues; d marks the D form. Peptide text beside a SMILES is read from it. * marks the point of attachment. hTyr(3S-OH,4S-OH,3'-OSO3H) = N[C@H](C(=O)O)[C@H](O)[C@@H](O)c1ccc(O)c(OS(=O)(=O)O)c1; Orn(4R-OH,5R-OH) = O=C([C@H](C[C@@H](O)[C@@H](O)N[*:3])N[*:1])[*:2]; Pro(3S-OH,4S-Me) = C[C@H]1CN[C@H](C(=O)O)[C@H]1O; X1 = CCCCCOc1ccc(-c2cc(-c3ccc(C(=O)*)cc3)no2)cc1; Gln(3R-OH) = NC(=O)C[C@@H](O)[C@H](N)C(=O)O; Hyp = O=C(O)[C@@H]1C[C@@H](O)CN1

Assays:
Aspergillus spp. = details: 13 strains of Aspergillus spp.; cited from earlier work
Penicillium spp. = details: 5 strains of Penicillium spp.; cited from earlier work
Microsporum spp. = details: 2 strains of Microsporum spp; cited from earlier work
Rhizopus oryzae [1] = details: 4 strains of Rhizopus oryzae; cited from earlier work
Mucor circinelloides = assay: MIC determination against ATCC and clinical isolates of the order Mucorales (CLSI M27, 4th edition); format: cell-based
Text: (§1) MIC: Minimum Inhibitory Concentration (MIC) is defined as the lowest concentration of an antimicrobial ingredient that is bacteriostatic.
(§2) Testing has been performed in triplicates for each isolate.

Trichophyton spp. = details: 7 strains of Trichophyton spp.; cited from earlier work
[2] = rats, single intravenous administration; amcipatricin diascorbate 1.25 mg/kg, amphotericin B 1 mg/kg; cited from earlier work
Sporothrix schenkii = details: 1 strain of Sporothrix schenkii; cited from earlier work
Candida auris = assay: MIC determination against clinical isolates of Candida auris (CLSI M27, 4th edition); format: cell-based; details: Candidozyma auris
Text: as §1, §2

Rhizopus microsporus = assay: MIC determination against clinical isolates of the order Mucorales (CLSI M27, 4th edition); format: cell-based
Text: as §1, §2

Rhizopus oryzae [3] = assay: as above; format: cell-based; details: Rhizopus arrhizus, strain 2086, clinical strain
Text: as §1, §2

[4] = ATCC24905, strain ATCC 24905, ATCC strain
[5] = strain I.2 (No 2), clade I/India, read-out: MIC values
[6] = strain I.3 (No 3), clade I/India, read-out: MIC values
[7] = strain I.4 (No 4), clade I/India, read-out: MIC values
[8] = strain II.1 (No 5), clade II/Japan, read-out: MIC values
[9] = strain II.2 (No 1), clade II/India, read-out: MIC values
[10] = strain III.7 (No 12), clade III/Switzerland, read-out: MIC values
[11] = strain III.8 (No 13), clade III/Israel, read-out: MIC values
[12] = strain III.9 (No 14), clade III/Israel, read-out: MIC values
[13] = strain IV.1 (No 15), clade IV/Colombia, read-out: MIC values
[14] = strain IV.10 (No 7), clade IV/Israel, read-out: MIC values
[15] = strain IV.11 (No 8), clade IV/Israel, read-out: MIC values
[16] = strain IV.12 (No 9), clade IV/Israel, read-out: MIC values
[17] = strain IV.13 (No 10), clade IV/Israel, read-out: MIC values
[18] = strain IV.14 (No 11), clade IV/Israel, read-out: MIC values
[19] = strain IV.2 (No 16), clade IV/Colombia, read-out: MIC values
[20] = strain IV.3 (No 17), clade IV/Colombia, read-out: MIC values
[21] = strain IV.4 (No 18), clade IV/Colombia, read-out: MIC values
[22] = strain IV.5 (No 19), clade IV/Colombia, read-out: MIC values
[23] = strain IV.6 (No 20), clade IV/Colombia, read-out: MIC values
[24] = strain IV.7 (No 21), clade IV/Colombia, read-out: MIC values
[25] = strain IV.8 (No 22), clade IV/Colombia, read-out: MIC values
[26] = strain IV.9 (No 6), clade IV/Israel, read-out: MIC values

C[C@@H]1[C@H](O)[C@@H](C)/C=C/C=C/C=C/C=C/C=C/C=C/C=C/[C@H](O[C@@H]2O[C@H](C)[C@@H](O)[C@H](N)[C@@H]2O)C[C@@H]2O[C@](O)(C[C@@H](O)C[C@@H](O)[C@H](O)CC[C@@H](O)C[C@@H](O)CC(=O)O[C@H]1C)C[C@H](O)[C@H]2C(=O)O [Amphotericin B]
10330 ng·h/mL: area under the curve to infinity (AUC(0-∞)) [2]
18.15 h: elimination half-lives [2]
2 µg/mL: MIC (Candida auris; [13]) | MIC (Candida auris; [19]) | MIC (Candida auris; [20])
about 12 μg/mL: geometric means of the minimum fungicidal concentrations (Penicillium spp.)
lower: geometric means of the minimum fungicidal concentration values compared to amcipatricin diascorbate (Microsporum spp.) | geometric means of the minimum fungicidal concentration values compared to amcipatricin diascorbate (Rhizopus oryzae [1]) | geometric means of the minimum fungicidal concentration values compared to amcipatricin diascorbate (Trichophyton spp.)
19.2 µg/mL: MFC (Sporothrix schenkii)
0.25 µg/mL: MIC (Mucor circinelloides; [4]) | MIC (Mucor circinelloides; strain 2707, clinical strain) | MIC (Candida auris; [9]) | MIC (Candida auris; [14]) | MIC (Rhizopus microsporus; strain 3315, clinical strain)
0.5 µg/mL: MIC (Mucor circinelloides; strain 2109, clinical strain) | MIC (Candida auris; [8]) | MIC (Candida auris; [10]) | MIC (Candida auris; [11]) | MIC (Candida auris; [15]) | MIC (Candida auris; [16]) | MIC (Candida auris; [18]) | MIC (Candida auris; [26]) | MIC (Rhizopus microsporus; strain 3435, clinical strain)
12.53 µg/mL: geometric means of the minimum fungicidal concentrations (Aspergillus spp.)
1 µg/mL: MIC (Mucor circinelloides; strain 4280, clinical strain) | MIC (Candida auris; [5]) | MIC (Candida auris; [6]) | MIC (Candida auris; [7]) | MIC (Candida auris; [12]) | MIC (Candida auris; [17]) | MIC (Candida auris; [21]) | MIC (Candida auris; [22]) | MIC (Candida auris; [23]) | MIC (Candida auris; [24]) | MIC (Candida auris; [25]) | MIC (Rhizopus oryzae [3])

OC(Cn1cncn1)(Cn1cncn1)c1ccc(F)cc1F [Fluconazole]
1020 µg/mL: MIC (Candida auris; [5]) | MIC (Candida auris; [6]) | MIC (Candida auris; [7]) | MIC (Candida auris; [10]) | MIC (Candida auris; [12]) | MIC (Candida auris; [24]) | MIC (Candida auris; [25])
4 µg/mL: MIC (Candida auris; [8]) | MIC (Candida auris; [13])
16 µg/mL: MIC (Candida auris; [26])
128 µg/mL: MIC (Candida auris; [19]) | MIC (Candida auris; [20]) | MIC (Candida auris; [21]) | MIC (Candida auris; [22]) | MIC (Candida auris; [23])
512 µg/mL: MIC (Candida auris; [11])
32 µg/mL: MIC (Candida auris; [9]) | MIC (Candida auris; [14]) | MIC (Candida auris; [15]) | MIC (Candida auris; [16]) | MIC (Candida auris; [17]) | MIC (Candida auris; [18])

CCCCCOc1ccc(-c2cc(-c3ccc(C(=O)N[C@H]4C[C@@H](O)[C@@H](O)NC(=O)[C@@H]5[C@@H](O)[C@@H](C)CN5C(=O)[C@H]([C@H](O)CC(N)=O)NC(=O)[C@H]([C@H](O)[C@@H](O)c5ccc(O)c(OS(=O)(=O)O)c5)NC(=O)[C@@H]5C[C@@H](O)CN5C(=O)[C@H]([C@@H](C)O)NC4=O)cc3)no2)cc1 [Micafungin] (X1-[Orn(4R-OH,5R-OH)]T[Hyp][hTyr(3S-OH,4S-OH,3'-OSO3H)][Gln(3R-OH)][Pro(3S-OH,4S-Me)]; lactam 1-C)
0.125 µg/mL: MIC (Candida auris; read-out: MIC values, strain I.2 (No 2), clade I/India) | MIC (Candida auris; read-out: MIC values, strain I.4 (No 4), clade I/India) | MIC (Candida auris; read-out: MIC values, strain II.1 (No 5), clade II/Japan) | MIC (Candida auris; read-out: MIC values, strain II.2 (No 1), clade II/India) | MIC (Candida auris; read-out: MIC values, strain IV.1 (No 15), clade IV/Colombia) | MIC (Candida auris; read-out: MIC values, strain IV.2 (No 16), clade IV/Colombia) | MIC (Candida auris; read-out: MIC values, strain IV.3 (No 17), clade IV/Colombia) | MIC (Candida auris; read-out: MIC values, strain IV.4 (No 18), clade IV/Colombia) | MIC (Candida auris; read-out: MIC values, strain IV.5 (No 19), clade IV/Colombia) | MIC (Candida auris; read-out: MIC values, strain IV.6 (No 20), clade IV/Colombia)
0.25 µg/mL: MIC (Candida auris; read-out: MIC values, strain III.7 (No 12), clade III/Switzerland) | MIC (Candida auris; read-out: MIC values, strain III.8 (No 13), clade III/Israel) | MIC (Candida auris; read-out: MIC values, strain III.9 (No 14), clade III/Israel) | MIC (Candida auris; read-out: MIC values, strain IV.10 (No 7), clade IV/Israel) | MIC (Candida auris; read-out: MIC values, strain IV.11 (No 8), clade IV/Israel) | MIC (Candida auris; read-out: MIC values, strain IV.12 (No 9), clade IV/Israel) | MIC (Candida auris; read-out: MIC values, strain IV.13 (No 10), clade IV/Israel) | MIC (Candida auris; read-out: MIC values, strain IV.7 (No 21), clade IV/Colombia) | MIC (Candida auris; read-out: MIC values, strain IV.8 (No 22), clade IV/Colombia) | MIC (Candida auris; read-out: MIC values, strain IV.9 (No 6), clade IV/Israel)
> 1020 µg/mL: MIC (Candida auris; read-out: MIC values, strain I.3 (No 3), clade I/India)
0.5 µg/mL: MIC (Candida auris; read-out: MIC values, strain IV.14 (No 11), clade IV/Israel)

CC[C@@H]([C@H](C)O)n1ncn(-c2ccc(N3CCN(c4ccc(OC[C@@H]5CO[C@@](Cn6cncn6)(c6ccc(F)cc6F)C5)cc4)CC3)cc2)c1=O [Posaconazole]
0.25 µg/mL: MIC (Rhizopus oryzae [3])
1 µg/mL: MIC (Mucor circinelloides; [4]) | MIC (Mucor circinelloides; strain 4280, clinical strain)
0.5 µg/mL: MIC (Mucor circinelloides; strain 2109, clinical strain) | MIC (Mucor circinelloides; strain 2707, clinical strain) | MIC (Rhizopus microsporus; strain 3435, clinical strain)

C[C@@H](c1ncncc1F)[C@](O)(Cn1cncn1)c1ccc(F)cc1F [Voriconazole]
0.5 µg/mL: MIC (Candida auris; [14]) | MIC (Candida auris; [15]) | MIC (Candida auris; [17]) | MIC (Candida auris; [21]) | MIC (Candida auris; [22]) | MIC (Candida auris; [23])
0.0625 µg/mL: MIC (Candida auris; [8]) | MIC (Candida auris; [13])
2 µg/mL: MIC (Candida auris; [6]) | MIC (Candida auris; [10]) | MIC (Candida auris; [11]) | MIC (Candida auris; [12])
8 µg/mL: MIC (Candida auris; [24]) | MIC (Candida auris; [25])
1 µg/mL: MIC (Candida auris; [5]) | MIC (Candida auris; [7]) | MIC (Candida auris; [9]) | MIC (Candida auris; [16]) | MIC (Candida auris; [18]) | MIC (Candida auris; [19]) | MIC (Candida auris; [20]) | MIC (Candida auris; [26])
